Laboratory results from PMC10258243, “Identification and characterization of novel marine oxasqualenoid yucatecone against Naegleria fowleri” (International Journal for Parasitology: Drugs and Drug …, 2023).
Like-named read-outs stand apart in the source and are kept apart here. One block for each molecule: values may come before it.

Key:
[1] = tested on: N. fowleri ATCC® 30808™ trophozoites; assay: Hoechst 33342/propidium iodide double stain for chromatin condensation; assay type: cell-based, Naegleria fowleri; settings: IC50 and IC90 of compound, 24 h
Method: (§1) The aim of these assays was to evaluate the presence of different metabolic events that are shown in programmed cell death like process (PCD-like) undergoing cells. […] After the treatment of the cells with these concentrations of the molecules, a 50% and a 10%, respectively, of the amoebae in the well remain as viable. Finally, the protocol for each kit was performed following manufacturers’ instructions. Moreover, the percentage of stained cells after the incubation of the treated and non-treated cells with each kit and the ratio of fluorescence between the aggregate and monomer forms of the JC-1 was evaluated. For this, the EVOS M5000 Cell Imaging System (Life Technologies, Madrid, Spain) was used and each experiment was performed in triplicate. In each experiment five different images were evaluated with a minimum number of cells of 80.
A double stain detection kit Hoechst 33342/propidium iodide (PI) (Life Technologies, Madrid, Spain) and an EVOS M5000 Cell Imaging System (Life Technologies, Madrid, Spain) were used in this experiment. The assay was performed following manufacturer's instruction.
This kit enables to distinguish between three different group of cells: A light blue fluorescence corresponds to live cells whereas in the treated cells an intense blue fluorescence is shown. Finally, red fluorescence appears in dead cells as the IP binds to their DNA.

[2] = tested on: N. fowleri trophozoites; assay: Celltiter-Glo ATP level measurement; assay type: cell-based, Naegleria fowleri
Method: as §1
The ATP level measurement was performed with the Celltiter-Glo® Luminescent Cell Viability Assay (Promega Biotech Ibérica, Madrid, Spain). […]

[3] = tested on: N. fowleri ATCC® 30808™; assay: alamarBlue colorimetric activity assay, trophozoites; assay type: cell-based, Naegleria fowleri; settings: for IC50: Naegleria fowleri, read-out: N. fowleri ATCC® 30808™ IC50; for N. fowleri ATCC® 30808™ SI (CC50/IC50): selectivity index
Method: (§2) The activity evaluation of the molecules was carried out in two different N. fowleri strains (ATCC® 30808™ and ATCC® 30215™) from the American Type Culture Collection (LG Promochem, Barcelona, Spain). The cytotoxicity of the compounds was evaluated using a murine macrophages cell line (ATCC® TIB-67). Cells were grown as previously described ([Rizo-Liendo et al., 2020]).
(§3) A colorimetric assay based on the alamarBlue® reagent was performed to evaluate the activity of the compounds in two different N. fowleri strains (ATCC® 30808™ and ATCC® 30215™). The same protocol optimized by Rizo-Liendo et al. was followed in these assays ([Rizo-Liendo et al., 2019]). Briefly, N. fowleri trophozoites (2 × 10^5 cells/mL) were incubated with serial dilutions (in the same culture media) of the compounds in a 96 well microtiter plate. Next, the alamarBlue® reagent was added and the plates were incubated at 37 °C. After 48 h, the fluorescence was read in an EnSpire Multimode Plate Reader (Perkin Elmer, Madrid, Spain) using a wavelength of excitation of 570 nm and a wavelength of emission of 585 nm.
(§4) All experiments were carried out in triplicate and mean values were also calculated.

[4] = tested on: N. fowleri ATCC® 30215™; assay: as above; assay type: cell-based, Naegleria fowleri; settings: for IC50: Naegleria fowleri, read-out: N. fowleri ATCC® 30215™ IC50; for N. fowleri ATCC® 30215™ SI (CC50/IC50): selectivity index
Method: as §2, §3, §4

[5] = tested on: N. fowleri ATCC® 30808™ trophozoites; assay: CellROX Deep Red intracellular ROS; assay type: cell-based, Naegleria fowleri; settings: IC50 and IC90 of compound, 24 h
Method: as §1
The CellROX Deep Red fluorescent assay (Invitrogen, Termo Fisher Scientifc, Madrid, Spain) was used to perform the ROS levels evaluation. After the cell incubation with the yucatecone the stain was added and incubated for half an hour in the dark. Finally, images were obtained with an EVOS M5000 Cell Imaging System (Life Technologies, Madrid, Spain). The presence of ROS is detected by intense red fluorescence.

[6] = tested on: Cysts of N. fowleri ATCC® 30808™; assay: alamarBlue activity assay against cysts; assay type: cell-based; settings: Naegleria fowleri, ATCC30808, read-out: IC50 against N. fowleri cysts
Method: Cysts of N. fowleri ATCC® 30808™ strain were used in these assays. Cysts were obtained as previously described and performing the protocol optimized by our group ([Arberas-Jiménez et al., 2022]). Mature cysts (2 × 10^5 cells/mL) were incubated with serial dilutions of yucatecone during 24 h at 37 °C. Subsequently, the media was removed and fresh bactocasitone was added with the aim to facilitate the excystation. Finally, the alamarBlue® reagent was added and the plates were incubated for 72 more hours at 37 °C prior to reading the fluorescence and determining the IC50 as described in section 2.4.

[7] = alamarBlue cytotoxicity assay; assay type: cell-based; settings: mouse, J774A.1, 24 h, mean ± SD, read-out: Murine macrophages CC50
Method: as §2
In order to evaluate the cytotoxicity of the compounds a murine macrophages cell line (ATCC® TIB-67) was used. A known concentration of cells (10^5 cells/mL) was incubated with serial dilutions of the molecules. After that, the alamarBlue® reagent was added and the plates were incubated for 24 h at 37 °C and in a 5% of CO2 atmosphere ([Arberas-Jiménez et al., 2020]). The same alamarBlue® based protocol described in the section above was assessed to obtain de cytotoxic concentration 50 (CC50).

[8] = tested on: N. fowleri ATCC® 30808™ trophozoites; assay: JC-1 mitochondrial membrane potential; assay type: cell-based, Naegleria fowleri; settings: IC50 and IC90 of compound, 24 h
Method: as §1
The mitochondrial membrane potential decrease was determined using the JC-1 Mitochondrial Membrane Potential Assay Kit (Cayman Chemicals, Vitro SA, Madrid, Spain). The JC-1 dye presents potential-dependent accumulation in mitochondria. At high membrane potentials (healthy cells) JC-1 dye accumulates as “J-aggregates” in the mitochondria and emits red fluorescence whereas at low membrane potentials (cells undergoing PCD-like responses) the dye is presented in monomeric form in the cytoplasm, emitting green fluorescence. […]

[9] = tested on: N. fowleri ATCC® 30808™ trophozoites; assay: SYTOX Green plasmatic membrane permeability; assay type: cell-based, Naegleria fowleri; settings: IC50 and IC90 of compound, 24 h
Method: as §1
The SYTOX Green kit (Life Technologies, Madrid, Spain) was used for the evaluation of the cellular plasmatic membrane damage. This stain binds to the DNA of those cells who have suffered alterations in the permeability of the plasmatic membrane and emits a high green fluorescence. […] This assay was performed following manufacturer's instruction and modified by [Sifaoui et al. (2018)]. An EVOS M5000 Cell Imaging System (Life Technologies, Madrid, Spain) was used to obtain the images.

[10] = ATCC30808, trophozoite stage, 48 h, mean ± SD, triplicate, N/A = no activity observed
[11] = ATCC30215, trophozoite stage, 48 h, mean ± SD, triplicate

Structure (SMILES): CC(CCC(=O)C1(C)CCC(C(C)(C)O)O1)C1CCC2OC(C3(C)CCC(Br)C(C)(C)O3)CCC2(C)O1 (stereo not shown) [Yucatecone (4), yucatecone]
chromatin condensation (Hoechst 33342) [1]: induces chromatin condensation
propidium iodide staining [1]: no fluorescence is shown
decrease of ATP production ([2]; treated with the IC50, compared to negative control): 54.80%
decrease of ATP production ([2]; treated with the IC90, compared to negative control): 90.44%
IC50 ([3]; ATCC30808, 48 h): 28.5 ± 5.04 µM
N. fowleri ATCC® 30808™ SI (CC50/IC50) [3]: >2.98
N. fowleri ATCC® 30808™ SI (CC50/IC50) ([3]; listed as Yucatecone): > 2.98
IC50 ([4]; ATCC30215, 48 h): 16.2 ± 1.23 µM
N. fowleri ATCC® 30215™ SI (CC50/IC50) [4]: >5.23
intracellular ROS level (CellROX Deep Red) [5]: increased the intracellular ROS level production
IC50 [6]: 9.43 ± 1.48 µM
CC50 at 24 h [7]: > 85 µM
mitochondrial membrane potential (JC-1) [8]: induces the depolarization of the mitochondrial membrane potential
plasma membrane permeability (SYTOX Green) [9]: caused plasma membrane permeabilty damage

IC50 [3, 10]: 0.12 ± 0.03 µM
IC50 [4, 11]: 0.16 ± 0.02 µM
Structure (SMILES): C[C@@H]1[C@H](O)[C@@H](C)/C=C/C=C/C=C/C=C/C=C/C=C/C=C/[C@H](O[C@@H]2O[C@H](C)[C@@H](O)[C@H](N)[C@@H]2O)C[C@@H]2O[C@](O)(C[C@@H](O)C[C@@H](O)[C@H](O)CC[C@@H](O)C[C@@H](O)CC(=O)O[C@H]1C)C[C@H](O)[C@H]2C(=O)O [Amphotericin B, reference compound]
N. fowleri ATCC® 30808™ SI (CC50/IC50) [3]: >1652.89
N. fowleri ATCC® 30215™ SI (CC50/IC50) [4]: >1204.82
CC50 at 24 h ([7]; J774A.1 murine macrophage cell line (ATCC TIB-67)): > 200 µM

IC50 [3, 10]: 38.7 ± 4.23 µM
IC50 [4, 11]: 81.6 ± 7.23 µM
Structure (SMILES): CCCCCCCCCCCCCCCCOP(=O)([O-])OCC[N+](C)(C)C [Miltefosine, reference compound]
N. fowleri ATCC® 30808™ SI (CC50/IC50) [3]: 3.30
N. fowleri ATCC® 30215™ SI (CC50/IC50) [4]: 1.57

Structure (SMILES): C=C(CCC(=O)C1(C)CCC(C(C)(C)O)O1)C1CCC2OC(C3(C)CCC(Br)C(C)(C)O3)CCC2(C)O1 (stereo not shown) [18-KetoDT (6), 18-ketodehydrothyrsiferol]
IC50 [3, 10]: 15.3 ± 2.82 µM
N. fowleri ATCC® 30808™ SI (CC50/IC50) [3]: 2.61
IC50 [4, 11]: 12.7 ± 2.64 µM
N. fowleri ATCC® 30215™ SI (CC50/IC50) [4]: 3.17
CC50 at 24 h [7]: 40 ± 1.06 µM
